Laboratory results reported in US9861640B2, “Medicament for treatment of Alzheimer's disease” (KEMPHYS LTD., priority 2013, dated 2018).

Key:
TNF-α = conditions: in vitro, Aβ peptide-activated [72]; cited from earlier work
nitric oxide production = conditions: in vitro [72, 73]; cited from earlier work
APP/PS1 mice = conditions: cited from earlier work
RARβ and IL-4Rα mRNAs = conditions: murine dendritic cells [66]; cited from earlier work
RXR = conditions: 20 mg/kg; RXR-specific reporter transgene [48]; cited from earlier work
Tg2576 mice = conditions: T-maze spontaneous alternation and Nest building tests [17]; cited from earlier work
[1] = mice [17]; cited from earlier work
IDE = conditions: murine microglial cells [17]; cited from earlier work
CD36 = assay: Immunoblot of CD36 in rat primary microglia; assay type: cell-based; conditions: rat primary microglia; co-incubation of GW9662 (10 μM) with HX630 (5 μM), 48 h
Source text: Primary microglia (type 1) were harvested from primary mixed glial cell cultures prepared from neonatal Wistar rat pups, as previously reported. Mouse microglial cell line MG5 and mouse glial cell line A1 were maintained as previously described. Mouse neuroblastoma cell line N1E-115 and Neuro 2a (American Type Culture Collection, Manassas, Va., USA) were maintained in Dulbecco's modified Eagle's medium (DMEM) supplemented with 10% fetal bovine serum (FBS), 20 U/ml penicillin (Invitrogen, Gaithersburg, Md., USA), and 20 μg/ml streptomycin (Invitrogen). Primary rat microglia were treated with Am80 (5 μM) and/or HX630 (5 μM) in the presence and absence of GW9662 (10 μM) for 48 h in Eagle's MEM supplemented with 10% FBS and 0.2% glucose. MG5 cells and A1 cells were treated with Am80 (5 μM) and/or HX630 (5 μM) for 48 h in DMEM containing 10% FBS. […]
Rat primary microglia and mouse microglial MG5 cells (5×10^6 cells per 100-mm dish) were homogenized in RIPA buffer [10 mM Hepes-NaOH (pH 7.4) containing 150 mM NaCl, 1 mM EDTA, 1% Triton X-100, 0.5% sodium deoxycholate, 0.1% SDS, 1 mM PMSF, 1 mg/ml leupeptin. […] Bound horseradish peroxidase-labeled antibodies were then detected via chemiluminescence (an ECL kit; Pierce, Rockford, Ill., USA). Protein concentrations were determined with the BCA Protein Assay Reagent (Pierce) and Bradford Protein Assay Reagent (Pierce).

RARs = conditions: at higher concentrations [49]; cited from earlier work
rat primary microglia = assay: Clearance of 125I-labeled oligomeric Aβ1-42 by rat primary microglia; assay type: cell-based
Source text: Primary microglia (type 1) were harvested from primary mixed glial cell cultures prepared from neonatal Wistar rat pups, as previously reported. Mouse microglial cell line MG5 and mouse glial cell line A1 were maintained as previously described. Mouse neuroblastoma cell line N1E-115 and Neuro 2a (American Type Culture Collection, Manassas, Va., USA) were maintained in Dulbecco's modified Eagle's medium (DMEM) supplemented with 10% fetal bovine serum (FBS), 20 U/ml penicillin (Invitrogen, Gaithersburg, Md., USA), and 20 μg/ml streptomycin (Invitrogen). Primary rat microglia were treated with Am80 (5 μM) and/or HX630 (5 μM) in the presence and absence of GW9662 (10 μM) for 48 h in Eagle's MEM supplemented with 10% FBS and 0.2% glucose. MG5 cells and A1 cells were treated with Am80 (5 μM) and/or HX630 (5 μM) for 48 h in DMEM containing 10% FBS. N1E-115 cells were treated with Am80 (5 μM) and/or HX630 (5 μM) for 5 days in DMEM containing 2% FBS.
^125I-Labeled oligomeric Aβ1-42 (o-Aβ1-42) was prepared as described. Cells were cultured in 24-well plates for 48 h in Eagle's MEM supplemented with 10% FBS in the presence or absence of Am80 (5 μM) and HX630 (5 μM). After the 48-h treatment, the cells were washed twice with labeling medium (DMEM containing 3% BSA) and then incubated with ^125I-labeled o-Aβ1-42 for 6 h at 37° C. Following the 6-h incubation, medium was removed from each well, and soluble radioactivity in TCA (degraded and extracellularly released peptide fragments) was determined as an index of Aβ degradation in the medium as described previously. The Aβ degradation activity may thus include both receptor-mediated phagocytic activity and extracellular protease-mediated degradation. Cells were washed three times with PBS, then lysed with 0.4 ml of 0.1 M NaOH for 30 min at 37° C., and cell-associated (including cell-incorporated) radioactivity and cell proteins were determined with an autogamma counter and the BCA Protein Assay Reagent (Pierce), respectively. We could not determine the activity of IDE-dependent degradation in this medium, because the incubation medium was replaced with labeling medium prior to incubation with ^[…].

Compound: CC1=C(/C=C/C(C)=C/C=C/C(C)=C/C(=O)O)C(C)(C)CCC1 [ATRA, all trans retinoic acid]
- inhibitory effect on TNF-α production (TNF-α): 40-50%
- inhibition of nitric oxide production (nitric oxide production): complete inhibition
- memory function in APP/PS1 mice (APP/PS1 mice; ATRA alone [14]): improved memory function
- mRNAs encoding RARβ and IL-4Rα (RARβ and IL-4Rα mRNAs): markedly increased
- activation of RXR in vivo (RXR): activates RXR

Compound: CC1(C)CCC(C)(C)c2cc(C(=O)Nc3ccc(C(=O)O)cc3)ccc21 [Am580, 4-{(5,6,7,8-tetrahydro5,5,8,8-tetramethyl-2-naphthalenyl)carboxamido}benzoic acid]
- cognitive deficits in Tg2576 mice (Tg2576 mice): ameliorated cognitive deficits
- crossing of the BBB [1]: crosses the BBB
- IDE activity in the medium (IDE): increased

Compound: O=C(Nc1ccccc1)c1cc([N+](=O)[O-])ccc1Cl [GW9662]
- effect on the HX630-induced increase in CD36 expression (CD36): inhibited

Compound: C=C(c1ccc(C(=O)O)cc1)c1cc2c(cc1C)C(C)(C)CCC2(C)C [bexarotene]
- behavioral defects in APP/PS1 mice (APP/PS1 mice; mouse, in vivo): improved behavioral defects
- cross-reactivity with RARs (RARs): cross-reactivity

Compound: O=C(O)CNC(=O)C(CS)Cc1ccccc1 (centres unmarked) [thiorphan]
- effect on degradation activity in Am80/HX630-treated cells (rat primary microglia; thiorphan 30 μM): did not affect

Compound: fucoidan
- effect on the HX630- and Am80/HX630-induced increase of o-Aβ1-42 degradation activity (rat primary microglia; fucoidan 100 μg/ml): inhibited

Compound: insulin: an IDE inhibitor
- effect on cell-association and degradation activities in Am80/HX630-treated cells (rat primary microglia; insulin 100 μg/ml): inhibited
